Measurements taken from US20210161868A1, “ANTI-INFLAMMATORY THERAPY IN ARRHYTHMOGENIC CARDIOMYOPATHY (ACM)” (Beth Israel Deaconess Medical Center, Inc., priority 2018, published 2021).
“Also recorded” adds a separate entry of the source.

How the values were obtained:
[1] = test system: Dsg2^mut/mut mice; assay: Morphometry, echocardiography and electrocardiography in Dsg2^mut/mut mice; format: in vivo
Description: (§1) All animal studies were in full compliance with policies of Beth Israel Deaconess Medical Center, Johns Hopkins School of Medicine and St. George's University of London. They also conformed to the Guide for the Care and Use of Laboratory Animals from the National Institutes of Health (NIH publication no. 85-23, revised 1996). In vitro studies involved transfection of cultured neonatal rat ventricular myocytes with a mutant allele of the desmosomal protein plakoglobin (2157de12) as previously described.^15 In vivo studies were performed in mice with homozygous knock-in of a mutant form of Dsg2, the gene encoding the desmosomal cadherin desmoglein-2 (Dsg2^mut/mut mice) as previously described.^6 This mutation entails loss of exons 4 and 5 which causes a frameshift and premature termination of translation.
Three cohorts of mice at 8 weeks of age were anesthetized and implanted with subcutaneous osmotic mini-pumps (Alzet, Model 1004). These included: 1) Dsg2^mut/mut mice with pumps containing 50 μg/μL Bay11-7082 in a vehicle of 65% DMSO, 15% ethanol, and 20% saline; 2) Dsg2^mut/mut mice with pumps containing an equivalent volume of vehicle; and 3) wildtype mice with pumps containing vehicle. Mice in cohort 1 received 5 mg/kg/day of Bay11-7082 by continuous infusion; those in cohorts 2 and 3 received an equivalent volume of vehicle each day for 4 weeks. At 12 weeks of age, mice were re-anesthetized and new Alzet pumps were implanted for an additional 4 weeks of treatment.
At the end of the 8 week drug treatment protocol, cardiac function was assessed in all mice by transthoracic echocardiography and electrocardiography (ECG) as previously described. Echocardio-graphic measurements were made according to American Society of Echocardiography guidelines^48 in non-sedated mice using a Vevo 2100 Visualsonic imaging system. Parasternal long-axis views of the left ventricle (LV), at the level of the papillary muscles, were acquired at a sweep speed of 200 mm/second. Three to five measurements were acquired from each mouse and averaged to assess LV function as previously described. ECG measurements made in anesthetized mice in which wire electrodes had been sutured in place in the right and left arms to obtain standard lead I ECG recordings. Recordings were captured via PowerLab and analyzed via the LabChart Pro ECG Analysis Add-on Software (LabChart Pro 8, MLS360/8, AD Intruments). ECGs were recorded for 15 minutes and all ECG wave and amplitude parameters were analyzed as signal averaged ECGs (SAECGs). Following completion of functional studies, mice were euthanized and hearts were excised and processed for additional studies either by freezing fresh tissue (−80C) or fixing tissue in 10% buffered formalin and embedding in paraffin.

[2] = test system: neonatal rat ventricular myocytes (NRVMs) expressing JUP^2157del2; assay: ACM features (protein distribution, immunofluorescence) in NRVMs expressing mutant plakoglobin; format: cell-based; parameters: pattern of distribution of plakoglobin, Cx43 and GSK3β: dose or concentration left out as unconfirmed
Description: as §1
(§2) Primary cultures were prepared from disaggregated ventricles of 1-day-old Wistar rat pups (Charles River) as previously described.^15 Cell suspensions were pre-plated to reduce fibroblast content, placed in collagen-coated chamber slides at a density of 2.4×10^5 cells/cm^2, and grown for 4 days at 37° C. in M199 medium (GIBCO) (supplemented with penicillin, 20 U/mL; streptomycin, 20 μg/mL; 10% neonatal calf serum and 0.1 mM bromodeoxyuridine) in a humidified atmosphere containing 1% CO2. Epinephrine (0.01 μmol/mL) was added during the first 24 hours of culture. […]

[3] = test system: neonatal rat ventricular myocytes (NRVMs) expressing JUP^2157del2; assay: In vitro cytokine assay of NRVM culture media; format: cell-based; settings: Bay11-7082 5 μM, 24 hours
Protocol: as §2, with “culture. At 24 hours post-seeding, cultures were transfected with an adenoviral construct expressing plakoglobin (JUP) with the 2157del2 mutation, as previously reported.^15 At 24 hours post-transfection, cultures were treated with Bay11-7082 (Sigma, […]) for an additional 24 hours.” for “culture.”
Culture media from cells expressing 2157del2 plakoglobin in the presence or absence of Bay11-7082 (5 μM, 24 hours) were collected after 96 hours in culture, mixed with a cocktail of biotinylated detection antibodies, and incubated with nitrocellulose membranes spotted in duplicate with control and capture antibodies (R&D Systems). […] The cytokine array specifically detected rat cytokines whereas cells were grown in media containing neonatal bovine serum. […]

[4] = Dsg2^mut/mut + Bay11-7082, n=17, mean±SEM, 8 week treatment
[5] = Dsg2^mut/mut mice, continuous infusion over 8 weeks

SMILES: Cc1ccc(S(=O)(=O)/C=C/C#N)cc1 [Bay 11-7082]
- FS, fractional shortening [1, 4]: 49.5 ± 1.9%
- HW/BW, heart weight/body weight [1, 4]: 4.7 ± 0.1 mg/g
- IVSd, interventricular septum thickness at end-diastole [1, 4]: 0.95 ± 0.02 mm
- LVIDd, left ventricular internal diameter at end-diastole [1, 4]: 2.96 ± 0.06 mm
- LVIDs, left ventricular internal diameter at end-systole [1, 4]: 1.50 ± 0.08 mm
- LVM, left ventricular mass [1, 4]: 92.9 ± 3.08 mg
- P-Amp, P-wave amplitude [1, 4]: 0.06 ± 0.003 mV
- PR-I, P-R interval [1, 4]: 39.0 ± 0.9 ms
- Pd, P-wave duration [1, 4]: 10.1 ± 0.5 ms
- Q-Amp, Q-wave amplitude [1, 4]: −0.06 ± 0.01 mV
- QRSd, QRS wave duration [1, 4]: 11.4 ± 0.4 ms
- R-Amp, R-wave amplitude [1, 4]: 0.66 ± 0.04 mV
- RR-I, R-R interval [1, 4]: 118 ± 2.5 ms
- S-Amp, S-wave amplitude [1, 4]: −0.09 ± 0.04 mV
- abnormalities in the signal averaged ECG [1, 5]: corrected
- contractile function [1, 5]: normalized
- treated ACM mice that failed to respond to NFκB inhibition ([1]; related to technical failure of drug delivery by Alzet minipumps): 3 of 17
- in vitro readouts of the ACM phenotype (plakoglobin, Cx43, apoptosis, cytokines) ([2]; NRVMs expressing mutant plakoglobin): blocked; also recorded: completely reversed
- pattern of distribution of plakoglobin, Cx43 and GSK3β ([2]; transfected NRVMs, Bay11-7082, 24 hours): normalized; also recorded: indistinguishable from that seen in control
- accumulation of cytokines and chemoattractants in culture media [3]: reduces; also recorded: greatly reduced
